What was measured:
[1] = Thermodynamic stability of the crystalline form; assay type: physicochemical
[2] = Physical and chemical stability on storage (PXRD, Karl Fischer water content, HPLC purity); conditions: for change in PXRD pattern on storage / degradation on storage / increase in moisture content on storage / physical and chemical stability (conclusion): 6 months at 40° C./75% RH and at 25° C./60% RH
Protocol: The physical and chemical stability of dolutegravir sodium Form-M2 and Form-M4 was determined by storing the samples at 40° C./75% relative humidity (RH) and at 25° C./60% RH for 6 months. At different time points during storage, the crystal structure of the material was analyzed by PXRD, the water content by Karl Fischer, and by HPLC for final purity.

[3] = storage at 25° C./60% RH, 1 month
[4] = storage at 25° C./60% RH, 3 months
[5] = storage at 25° C./60% RH, 6 months
[6] = storage at 25° C./60% RH, Initial
[7] = storage at 40° C./75% RH, 1 month
[8] = storage at 40° C./75% RH, 3 months
[9] = storage at 40° C./75% RH, 6 months
[10] = storage at 40° C./75% RH, Initial

| SMILES | change in PXRD pattern on storage [2] | degradation on storage [2] | increase in moisture content on storage [2] | physical and chemical stability (conclusion) [2] | HPLC purity (%) [2, 3] | PXRD (polymorph found) [2, 3] | HPLC purity (%) [2, 4] | PXRD (polymorph found) [2, 4] | HPLC purity (%) [2, 5] | PXRD (polymorph found) [2, 5] | HPLC purity (%) [2, 6] | PXRD (polymorph found) [2, 6] | HPLC purity (%) [2, 7] | PXRD (polymorph found) [2, 7] | HPLC purity (%) [2, 8] | PXRD (polymorph found) [2, 8] | HPLC purity (%) [2, 9] | PXRD (polymorph found) [2, 9] | HPLC purity (%) [2, 10] | PXRD (polymorph found) [2, 10] | further results |
| --- | --- | --- | --- | --- | --- | --- | --- | --- | --- | --- | --- | --- | --- | --- | --- | --- | --- | --- | --- | --- | --- |
| C[C@@H]1CCO[C@H]2Cn3cc(C(=O)NCc4ccc(F)cc4F)c(=O)c([O-])c3C(=O)N12.[Na+] [Form-M3, sodium (4R, 12aS)-9-((2,4-difluorobenzyl)carbamoyl)-4-methyl-6,8-dioxo-3,4,6,8, 12, 12a-hexahydro-2H-pyrido[1′,2′:4,5]pyrazino[2,1-b][1,3]oxazin-7-olate] | – | – | – | – | – | – | – | – | – | – | – | – | – | – | – | – | – | – | – | – | thermodynamic stability [1]: only metastable and not thermodynamically stable |
| C[C@@H]1CCO[C@H]2Cn3cc(C(=O)NCc4ccc(F)cc4F)c(=O)c([O-])c3C(=O)N12.[Na+] [Form-M2, sodium (4R, 12aS)-9-((2,4-difluorobenzyl)carbamoyl)-4-methyl-6,8-dioxo-3,4,6,8, 12, 12a-hexahydro-2H-pyrido[1′,2′:4,5]pyrazino[2,1-b][1,3]oxazin-7-olate] | no change in PXRD pattern | no significant degradation | no substantial increase in moisture content | physically and chemically stable | 99.6% | Form-M2 | 99.5% | Form-M2 | 99.5% | Form-M2 | 99.7% | Form-M2 | 99.6% | Form-M2 | 99.5% | Form-M2 | 99.5% | Form-M2 | 99.7% | Form-M2 | – |
| C[C@@H]1CCO[C@H]2Cn3cc(C(=O)NCc4ccc(F)cc4F)c(=O)c([O-])c3C(=O)N12.[Na+] [Form-M4, sodium (4R, 12aS)-9-((2,4-difluorobenzyl)carbamoyl)-4-methyl-6,8-dioxo-3,4,6,8, 12, 12a-hexahydro-2H-pyrido[1′,2′:4,5]pyrazino[2,1-b][1,3]oxazin-7-olate] | no change in PXRD pattern | no significant degradation | no substantial increase in moisture content | physically and chemically stable | 99.17% | Form-M4 | 99.10% | Form-M4 | 99.0% | Form-M4 | 99.24% | Form-M4 | 99.2% | Form-M4 | 99.1% | Form-M4 | 99.0% | Form-M4 | 99.2% | Form-M4 | – |
